Data published in patent US20210169871A1, “PHARMACEUTICAL COMPOSITIONS WITH REDUCED TERT-BUTANOL LEVELS” (TARVEDA THERAPEUTICS, INC., priority 2018, published 2021).
Marks after values point to notes of the source that are not given here.

Legend:
[1] = Residual moisture of lyophilized drug product; type: physicochemical; details: 100 mg/mL, 30% TBA, 4% PEG 400; Standard cycle (Table 2)
[2] = Residual TBA in lyophilized drug product by gas chromatography (GC-HS); type: physicochemical; parameters: key: TBA weight percentage in dry powder; details: 100 mg/mL
[3] = Stability of SDC-TRAP-0063 sodium with added excipients
[4] = Residual TBA in lyophilized drug product by gas chromatography (GC-HS); type: physicochemical; parameters: key to Residual TBA: TBA weight percentage in dry powder
Description: SDC-TRAP-0063 synthesized in Example 1 was dissolved in an alkaline co-solvent system comprising 30% (by volume) tert-butanol (TBA) and water to obtain a drug solution. Various polyols, such as PEG, glycerol and propylene glycol (PG), were added to the drug solution in vials prior to the standard lyophilization cycle (freezing→annealing→primary drying→secondary drying). Dry powder drug products comprising SDC-TRAP-0063 sodium were obtained. TBA weight percentages in the dry powders were measured by gas chromatography (GC-HS) (Table 1).

[5] = Solubility in water
[6] = pH-dependent lactone / open ring carboxylic acid equilibrium in solution; type: physicochemical
Source text: In solution, SDC-TRAP-0063 contains a lactone ring at pH-dependent equilibrium with the corresponding open chain carboxylic acid form. At high pH (above pH of around 9) the equilibrium shifts toward an open ring carboxylic acid form and at low pH it shifts toward the closed ring lactone form.
During the manufacturing process, SDC-TRAP-0063 is converted to SDC-TRAP-0063 Sodium, which is the dominant form at pH above approximately 9.3. SDC-TRAP-0063 Sodium drug product is aseptically manufactured as a sterile-filtered solution that is lyophilized. […] There is minimal impact from annealing or secondary drying modifications on TBA level in SDC-TRAP-0063 Sodium drug product.

[7] = pH, testing of lyophilized drug product; type: physicochemical
[8] = 100 mg/mL, 15% TBA, 3% PEG 400, NaOH 5.5 g/100 g (Table 3)
[9] = 100 mg/mL, 15% TBA, 6% Mannitol (Table 4)
[10] = 100 mg/mL, 30% TBA, 1% glycerol, standard lyophilization cycle (Table 1)
[11] = 100 mg/mL, 30% TBA, 2% PG, standard lyophilization cycle (Table 1)
[12] = 100 mg/mL, 30% TBA, 2% glycerol, standard lyophilization cycle (Table 1)
[13] = 100 mg/mL, 30% TBA, 3% PEG 400, NaOH 5.5 g/100 g (Table 3)
[14] = 100 mg/mL, 30% TBA, 3% PEG 400, standard lyophilization cycle (Table 1)
[15] = 100 mg/mL, 30% TBA, 3% glycerol, Standard cycle (Table 2)
[16] = 100 mg/mL, 30% TBA, 3.5% PEG 400, Standard cycle (Table 2)
[17] = 100 mg/mL, 30% TBA, 3.5% glycerol, Standard cycle (Table 2)
[18] = 100 mg/mL, 30% TBA, 4% PEG 400, BnOH 0.1 mg/vial, NaOH 5.5 g/100 g (Table 3)
[19] = 100 mg/mL, 30% TBA, 4% PEG 400, NaOH 5 g/100 g (Table 3)
[20] = 100 mg/mL, 30% TBA, 4% PEG 400, NaOH 5.5 g/100 g (Table 3)
[21] = 100 mg/mL, 30% TBA, 4% PEG 400, Standard cycle (Table 2)
[22] = 100 mg/mL, 30% TBA, 4% PEG 400, standard lyophilization cycle (Table 1)
[23] = 100 mg/mL, 30% TBA, 4% PEG 1000 (Table 4)
[24] = 100 mg/mL, 30% TBA, 4% PEG 2000 (Table 4)
[25] = 100 mg/mL, 30% TBA, 4% PEG 4000 (Table 4)
[26] = 100 mg/mL, 30% TBA, 4% PG, standard lyophilization cycle (Table 1)
[27] = 100 mg/mL, 30% TBA, 4% glycerol, Standard cycle (Table 2)
[28] = 100 mg/mL, 30% TBA, 4% glycerol, standard lyophilization cycle (Table 1)

CCc1c2c(nc3ccc(OC(=O)N4CCC(CCn5ccc6cc(-n7c(O)nnc7-c7cc(C(C)C)c(O)cc7O)ccc65)CC4)cc13)-c1cc3c(c(=O)n1C2)COC(=O)[C@]3(O)CC [SDC-TRAP-0063, (S)-4,11-diethyl-4-hydroxy-3,14-dioxo-3,4,12,14-tetrahydro-1H-pyrano[3′,4′:6,7]indolizino[1,2-b]quinolin-9-yl 4-(2-(5-(3-(2,4-dihydroxy-5-isopropylphenyl)-5-hydroxy-4H-1,2,4-triazol-4-yl)-1H-indol-1-yl)ethyl)piperidine-1-carboxylate]
Residual Moisture [1]: 0.26% | Residual TBA ([2]; 15% TBA, 4% Mannitol (Table 4)): 6.0% | Residual TBA ([2]; 30% TBA, 3% glycerol, No secondary drying (Table 2)): 4.0% | Residual TBA ([2]; 30% TBA, 3.5% PEG 400, No secondary drying (Table 2)): 3.2% | Stability profile with 4% PEG-400 ([3]; 4% of PEG-400): stability profile is acceptable | Stability profile with glycerol as excipient ([3]; glycerol as excipient, compared with PEG-400): slightly worse stability profile | Residual TBA [4, 8]: 3.3% | Residual TBA [4, 9]: 6.6% | Residual TBA ([4]; 100 mg/mL, 30% TBA, 0% PEG 400, 0% glycerol, Standard cycle, average (Table 2)): 7% avg | Residual TBA ([4]; 100 mg/mL, 30% TBA, 0% PEG 400, BnOH 0 mg/vial, NaOH 0 g/100 g, average (Table 3)): 7% avg | Residual TBA ([4]; 100 mg/mL, 30% TBA, 0% PEG 1000, 0% PEG 2000, 0% PEG 4000, 0% Mannitol, average (Table 4)): 7% avg | Residual TBA [4, 10]: 7.1% | Residual TBA [4, 11]: 4.1% | Residual TBA [4, 12]: 5.2% | Residual TBA [4, 13]: 4.1% | Residual TBA [4, 14]: 3.6% | Residual TBA [4, 15]: 3.8% | Residual TBA [4, 16]: 3.3% | Residual TBA [4, 17]: 3.3% | Residual TBA ([4]; 100 mg/mL, 30% TBA, 4% PEG 400, 5% Mannitol (Table 5)): 0.54 | Residual TBA ([4]; 100 mg/mL, 30% TBA, 4% PEG 400, 7.5% Mannitol (Table 5)): 1.36 | Residual TBA ([4]; 100 mg/mL, 30% TBA, 4% PEG 400, 10% Mannitol (Table 5)): 2.22 | Residual TBA [4, 18]: 2.4% | Residual TBA [4, 19]: 1.9% | Residual TBA [4, 20]: 2.2% | Residual TBA [4, 21]: 2.7% | Residual TBA [4, 22]: 2.0% | Residual TBA [4, 23]: 2.3% | Residual TBA [4, 24]: 2.2% | Residual TBA [4, 25]: 2.3% | Residual TBA [4, 26]: 1.5% | Residual TBA [4, 27]: 1.8% | Residual TBA [4, 28]: 1.2% | Residual TBA ([4]; 100 mg/mL, 30% TBA, 5% PEG 400, 5% Mannitol (Table 5)): 0.11 | Residual TBA ([4]; 100 mg/mL, 30% TBA, 5% PEG 400, 7.5% Mannitol (Table 5)): 0.26 | Residual TBA ([4]; 100 mg/mL, 30% TBA, 5% PEG 400, 10% Mannitol (Table 5)): 0.74 | Residual TBA ([4]; 100 mg/mL, 30% TBA, 6% PEG 400, 5% Mannitol (Table 5), below the limit of quantitation of the method): 0.05* | Residual TBA ([4]; 100 mg/mL, 30% TBA, 6% PEG 400, 7.5% Mannitol (Table 5), below the limit of quantitation of the method): 0.09* | Residual TBA ([4]; 100 mg/mL, 30% TBA, 6% PEG 400, 10% Mannitol (Table 5)): 0.16 | Residual TBA with 4% PEG-400 ([4]; 4% of PEG-400): 2.5-2.7% | Residual TBA ([4]; pre-lyophilization solution 100 mg/mL, 30% TBA, 0% PEG 400, 0% glycerol, 0% PG, standard lyophilization cycle, average): 7% avg | Solubility in water [5]: does not have good solubility in water | pH above which equilibrium shifts toward open ring carboxylic acid form [6]: around 9 | pH [7, 8]: 10.0 | pH ([7]; 100 mg/mL, 15% TBA, 4% Mannitol (Table 4)): 9.8 | pH [7, 9]: 9.8 | pH ([7]; 100 mg/mL, 30% TBA, 0% PEG 400, 0% glycerol, Standard cycle (Table 2)): 10.1-10.3 | pH ([7]; 100 mg/mL, 30% TBA, 0% PEG 400, BnOH 0 mg/vial, NaOH 0 g/100 g (Table 3)): 10.1-10.3 | pH ([7]; 100 mg/mL, 30% TBA, 0% PEG 1000, 0% PEG 2000, 0% PEG 4000, 0% Mannitol (Table 4)): 10.1-10.3 | pH [7, 10]: 10.2 | pH [7, 11]: 10.2 | pH [7, 12]: 10.2 | pH [7, 13]: 9.9 | pH [7, 14]: 10.1 | pH ([7]; 100 mg/mL, 30% TBA, 3% glycerol, No secondary drying (Table 2)): 10.1 | pH [7, 15]: 10.1 | pH ([7]; 100 mg/mL, 30% TBA, 3.5% PEG 400, No secondary drying (Table 2)): 10.1 | pH [7, 16]: 10.0 | pH [7, 17]: 10.1 | pH [7, 18]: 10.0 | pH [7, 19]: 9.5 | pH [7, 20]: 9.9 | pH [7, 21]: 10.1 | pH [7, 22]: 10.1 | pH [7, 23]: 9.7 | pH [7, 24]: 9.9 | pH [7, 25]: 9.8 | pH [7, 26]: 10.1 | pH [7, 27]: 10.1 | pH [7, 28]: 10.2 | pH ([7]; pre-lyophilization solution 100 mg/mL, 30% TBA, 0% PEG 400, 0% glycerol, 0% PG, standard lyophilization cycle): 10.1-10.3

CCc1c2c(nc3ccc(OC(=O)N4CCC(CCn5ccc6cc(-n7c(O)nnc7-c7cc(C(C)C)c(O)cc7O)ccc65)CC4)cc13)-c1cc([C@@](O)(CC)C(=O)[O-])c(CO)c(=O)n1C2.[Na+] [SDC-TRAP-0063 sodium, Sodium (S)-2-(2-((4-(2-(5-(3-(2,4-dihydroxy-5-isopropylphenyl)-5-hydroxy-4H-1,2,4-triazol-4-yl)-1H-indol-1-yl)ethyl)piperidine-1-carbonyl)oxy)-12-ethyl-8-(hydroxymethyl)-9-oxo-9,11-dihydroindolizino[1,2-b]quinolin-7-yl)-2-hydroxybutanoate]
Stability with PEG-400 addition ([3]; PEG-400 added as excipient): no impact on the stability | Stability with propylene glycol addition ([3]; propylene glycol added as excipient): faster decay | pH above which SDC-TRAP-0063 Sodium is the dominant form ([6]; manufacturing process): approximately 9.3
